Results reported in patent US20130150346A1, “Use of FAAH Inhibitors for Treating Parkinson's Disease and Restless Legs Syndrome” (Ironwood Pharmaceutical, Inc., priority 2010, published 2013).

How the values were obtained:
MPTP-lesioned marmosets [1] = experiment: Motor activity (passive infra-red sensors: total activity, high activity counts and time) in MPTP-lesioned marmosets; assay type: in vivo, common marmosets (Callithrix jacchus)
Description: (§1) Six common marmosets (Callithrix jacchus; female; weight, 350-500 g (Harlan, Madison, Wis., USA)) were kept under conditions of controlled temperature (25±2° C.) and a 12-hour light/dark cycle (lights on 6:30 a.m.). Animals were group housed and had access to food, fresh-fruit supplements and water ad libitum and their home cage environment was enriched with primate toys, perches and auditory stimuli. Prior to start of studies, animals were acclimatized to handling, blood collection and administration of treatments (oral syringe feeding and subcutaneous injection) as well as transfer to observation cages for assessment of behavior. A parkinsonian syndrome was induced by once-daily subcutaneous administration of MPTP hydrochloride (Sigma, Canada; 2 mg/kg base concentration in 0.9% saline) for 5 consecutive days. Following this, animals were allowed to recover for 12 weeks to allow parkinsonian symptoms to develop and stabilize. […] Treatment-related complications including dyskinesia and psychosis-like behaviors were evoked by twice-daily treatment with L-DOPA p.o. (as Prolopa®, Roche Canada, Ontario, equivalent to 15 mg/kg L-DOPA and 3.5 mg/kg benserazide) for a minimum of 30 days. […] Disord. 21:839-846; Visanji et al. (2008) Mov. Disord. 23:1922-1925; Visanji et al (2009) Neurobiol Dis. 35: 184-192]. After this time, the animals were used in several studies to evaluate potential anti-parkinsonian and anti-dyskinetic agents. A minimum period of two weeks was allowed between completing any prior study and commencing this study, a period in excess of ten half-lives since administration of any previously employed experimental drug. Throughout the course of the study, on days not requiring plasma sampling or behavioral observations, animals were treated once daily with oral L-DOPA therapy, given at 10:00 a.m. to maintain stable levels of complications. Marmosets treated with MPTP as described in this example are referred to as MPTP-lesioned marmosets.
(§2) To assess the effect of treatment on plasma FAAH substrate level, total activity, high activity time and count, data were analyzed using a parametric repeated-measures (RM) 1-way analysis of variance (ANOVA) followed by a Student Newman-Keuls Multiple Comparison post hoc test. To assess the effect of treatment on plasma L-DOPA level a paired, two-tailed t-test was used. All FAAH (AEA, OEA, PEA) subbstrate and L-DOPA plasma level data and activity data are presented as the group mean and SEM For measures of parkinsonian disability, dyskinesia and psychosis, data were analyzed via Friedman's test with Dunn's Multiple Comparison post hoc test. […] In all cases, p<0.05 was taken to represent a significant difference.
(§3) MPTP hydrochloride (Sigma, Canada) was dissolved in 0.9% NaCl sterile solution to a concentration of 0.2 mg/ml (freebase) and administered at 1 ml/kg. Maintenance L-DOPA, administered as Prolopa® capsules (Roche, Mississauga, ON, Canada) containing 50 mg L-DOPA and 12.5 mg benserazide (freebase) was dissolved in Gatorade sports beverage (The Gatorade Company, Chicago, Ill.) prior to oral administration by syringe at a volume of 10 ml/kg. On days of behavioral assessment, L-DOPA (20 mg/kg, freebase) was prepared from the methyl ester form (Sigma, Canada) in combination with benserazide hydrochloride (5 mg/kg, freebase, Sigma, Canada) dissolved in 0.9% sterile saline containing 0.1% ascorbate (Sigma, Canada) and 0.05% absolute ethanol. URB597 (Cayman Chemical, Ann Arbor, Mich.) was formulated in a vehicle containing 50% corn oil (Professional Compounding Centers of America (PCCA), Houston, Tex.) and 50% nutritional drink Ensure™ (Abbott Nutrition, Chicago, Ill.) to make the suspension palatable for marmoset oral dosing. Requisite amounts of URB597 were weighed into sterile 50 ml polypropylene tubes (for the 3, 10, 30 and 60 mg/kg doses, 12, 40, 120 and 240 mg were weighed respectively). Then, 10 ml Corn oil was added and mixed until homogenous.

MPTP-lesioned marmosets [2] = experiment: Rating of parkinsonian disability, dyskinesia and psychosis in MPTP-lesioned marmosets; assay type: in vivo, common marmosets (Callithrix jacchus); settings: L-DOPA 20 mg/kg s.c. alone, summed 2-4 h
Description: as §1, §2, §3

MPTP-lesioned macaques = experiment: Motor activity (total activity, high activity time and counts) in MPTP-lesioned macaques treated with URB597 and L-DOPA; assay type: in vivo, cynomolgus monkeys (Macaca fascicularis)
[3] = L-DOPA 20 mg/kg s.c. alone, 2-4 h, mean±SEM, n=6
[4] = L-DOPA 20 mg/kg s.c. alone, 2-4 h, p<0.001
[5] = L-DOPA 20 mg/kg s.c. alone, 2-4 h, p<0.05

N[C@@H](Cc1ccc(O)c(O)c1)C(=O)O [L-DOPA, 3,4-dihydroxyphenylalanine]
total activity counts (MPTP-lesioned marmosets [1]; L-DOPA 20 mg/kg s.c. alone (vehicle p.o.), peak dose period 2-4 h, mean±SEM, n=6): 2782±682 counts | high activity counts (MPTP-lesioned marmosets [1]; [3]): 2170±778 counts | high activity time (MPTP-lesioned marmosets [1]; [3]): 53.3 ± 15.2 min | increase in high activity time compared to normal, non-MPTP-lesioned animals (MPTP-lesioned marmosets [1]; [4]): 167% | increase in total activity compared to vehicle (s.c.)-treated, MPTP-lesioned animals (MPTP-lesioned marmosets [1]; [4]): 379% | increase in high activity counts compared to normal, non-MPTP-lesioned animals (MPTP-lesioned marmosets [1]; [5]): 120% | increase in total activity compared to non-treated, non-MPTP-lesioned (normal) animals (MPTP-lesioned marmosets [1]; [5]): 77% | period following drug administration in which total activity was significantly increased compared to vehicle (s.c.)-treated animals (MPTP-lesioned marmosets [1]; L-DOPA 20 mg/kg s.c. alone, 6 h time course, 30 min intervals): 3.5 h | psychosis score (median) (MPTP-lesioned marmosets [2]; IQR 0-0 as printed, n=6): 0 | dyskinesia score (median) (MPTP-lesioned marmosets [2]; IQR 10-29, n=6): 20 | parkinsonian disability score (median) (MPTP-lesioned marmosets [2]; maximum 432, IQR 57-111, n=6): 80 | total activity counts, high activity time and counts compared to normal, unlesioned macaques (MPTP-lesioned macaques; L-DOPA p.o. (30 to 45 mg/kg), 1 to 3.5 hrs after administration): higher | total activity counts, high activity time and high activity counts compared to normal macaques (MPTP-lesioned macaques; L-DOPA p.o. alone, between 2 and 3 h after L-DOPA): significantly higher
